Key:
[1] = target: T1, RORγt (Homo sapiens, UniProt P51449); test: RORγt binding test using fluorescent-labeled synthetic ligand (TR-FRET); settings: read-out: binding inhibitory rate of fluorescent-labeled synthetic ligand to RORγt at test compound 1 μM
T1 sequence (P51449 1-497 isoform P51449-2): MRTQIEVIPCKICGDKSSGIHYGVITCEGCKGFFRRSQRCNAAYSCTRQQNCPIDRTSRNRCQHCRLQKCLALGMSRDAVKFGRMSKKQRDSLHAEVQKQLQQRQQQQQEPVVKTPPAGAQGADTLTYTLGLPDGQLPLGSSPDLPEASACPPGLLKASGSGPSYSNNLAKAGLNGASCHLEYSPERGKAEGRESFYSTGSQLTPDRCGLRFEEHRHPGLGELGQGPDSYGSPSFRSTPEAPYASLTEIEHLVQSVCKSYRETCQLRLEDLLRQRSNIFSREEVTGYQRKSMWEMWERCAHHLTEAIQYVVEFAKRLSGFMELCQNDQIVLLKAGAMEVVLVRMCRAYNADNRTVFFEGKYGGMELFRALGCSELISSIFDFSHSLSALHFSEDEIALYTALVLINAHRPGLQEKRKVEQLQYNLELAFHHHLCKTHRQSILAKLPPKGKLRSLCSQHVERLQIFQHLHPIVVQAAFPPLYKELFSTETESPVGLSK
Experimental: RORγt Binding Test using Fluorescent-Labeled Synthetic Ligand
The binding activity of the test compound to RORγt was measured by a time resolved fluorescence resonance energy transfer method (TR-FRET) utilizing histidine-tagged RORγt, fluorescent-labeled synthetic ligand and terbium-labeled anti-histidine tag antibody (Invitrogen). First, a test compound diluted with an assay buffer (20 mM Tris-HCl (pH 7.5), 100 mM NaCl, 1 mM DTT, 0.1% BSA) was added to a 384 well plate by 3 μL. Then, RORγt diluted with an assay buffer to 240 nM was added by 3 μL, after which fluorescent-labeled synthetic ligand diluted with the assay buffer to 12 μM was added by 3 μL, and the mixture was stood at room temperature for 20 min. Thereafter, a terbium-labeled anti-histidine tag antibody diluted with the assay buffer to 8 nM was added by 3 μL. The mixture was stood at room temperature for 20 min, and fluorescence intensity (excitation wavelength 320 nm, fluorescence wavelength 520 nm, delay time 100 microseconds) was measured by Envision (PerkinElmer).

[2] = target: T1, RORγt; test: Cofactor recruitment test (Alpha Screen, biotinylated SRC-1 peptide); assay type: biochemical; settings: read-out: signal value inhibitory rate at test compound 1 μM
Experimental: Cofactor Recruitment Test
Cofactor recruitment test was performed by Alpha Screen (Histidine Detection Kit, PerkinElmer) method. First, a test compound was diluted with an assay buffer (50 mM Tris-HCl (pH 7.5), 50 mM KCl, 1 mM DTT, 0.1% BSA) and added to a 384 well plate by 5 μL. […] The mixture was stood in a dark place for 1 hr, and the signal value was measured by Envision (PerkinElmer).

[3] = target: T1, RORγt; test: Jurkat reporter test (human IL-17 ROR response element luciferase, RORγt vector); assay type: cell-based; settings: test compound 3 μM; Jurkat cells; read-out: luminescence level inhibitory rate at test compound 3 μM
Experimental: The Jurkat cells used for the reporter test were cultured in a culture medium (RPMI (Invitrogen), 10% FCS (AusGeneX), 100 U/mL penicillin, 100 μg/mL streptomycin). On the day of the test, 4×10^7 cells were recovered by a centrifugal operation (1000 rpm, 5 min.) and suspended in PBS (phosphate buffered saline) (Invitrogen). Thereafter, the cells were recovered again by a centrifugal operation, and suspended in 2 mL of R buffer (NEON transfection kit, Invitrogen). […] Gene transfer was performed by Electroporation apparatus (NEON, Invitrogen) under the conditions of pulse voltage 1350 V, interval 10 milliseconds, number of times 3. The cells after gene transfer were suspended in 40 mL of a reaction medium (RPMI, 10% Lipid reduced FCS (HyClone), 10 mM HEPES (pH 7.5), 100 U/mL penicillin, 100 μg/mL streptomycin, 5 μM lovastatin), and plated in a 96 well plate by 90 μL. A test compound diluted with the reaction medium was added by 10 μL, and the cells were cultured overnight in an incubator. Bright-Glo (Promega) was added by 100 μL, and the mixture was stirred at room temperature for 10 min, and the luminescence level was measured by Envision (PerkinElmer).

[4] = tested on: IL-17 production in human blood; test: Effect on IL-17 production in human blood; assay type: cell-based; settings: 72 h; 10 μM test compound; human peripheral blood, IL-23 and Dynabeads stimulation, 3 days; read-out: percent inhibition at 10 μM (IL-17 production)
Experimental: Effect on IL-17 Production in Human Blood
The inhibitory effect of the test compound on IL-17 production in human blood was evaluated as follows. First, 150 μL of peripheral blood collected from healthy individuals using heparinized vacuum blood collection tubes was dispensed into each well of a 96-well plate (Corning), and 45 μL of RPMI 1640 medium (Gibco) containing 10% fetal bovine serum (FBS, Hyclone) and 30 μL of the test compound diluted with the medium were added to each well. The plate was then cultured for 30 min at 37° C. The cells were subsequently stimulated by adding 30 μL of 100 ng/mL human IL-23 (R&D) and 45 μL of Dynabeads Human (Invitrogen) to each well and culturing the plate for 3 days at 37° C. In wells without stimulation, 75 μL of RPMI 1640 medium containing 10% FBS was added instead of the IL-23 and Dynabeads solution. After culturing for 3 days, the culture supernatant was collected, and the amount of IL-17 in the supernatant was measured using an IL-17 ELISA kit (R&D).
The results (percent inhibition of IL-17 production with 10 μM of the test compound) measured by the above-mentioned method are shown in Table 8.

[5] = tested on: IL-17A gene expression; test: Effect on IL-23-induced cytokine expression in mice; assay type: in vivo, mouse; settings: 10 mg/kg oral, 30 min before and 8 hr after IL-23; ear of Balb/c mice; versus the negative control group
Experimental: Effect on IL-23-Induced Cytokine Expression in Mice
A mouse IL-23 solution (500 ng/10 μL, prepared by Takeda Pharmaceutical Company Limited) or PBS (10 μL, negative control group) was administered intradermally in the ear of Balb/c mice (Charles River Japan, male, 7 weeks old). Twenty-four hr after administration, the ear was resected under isoflurane anesthesia. The test compound was suspended in 0.5% methylcellulose and administered orally 30 min before and 8 hr after IL-23 administration.
RNA extraction from the ear tissue and quantitative PCR were performed as follows. Specifically, ear tissue 5 mm in diameter was punched from an area of the resected ear centering on the IL-23 injection site, and the tissue was immersed in RNAlater (QIAGEN) for at least 18 hr. The RNAlater-treated ear tissue was homogenized in 350 μL of RLT buffer (RNeasy mini kit, QIAGEN) and treated (55° C., 10 min) with Proteinase K (QIAGEN). Total RNA was then extracted according to the RNeasy mini kit protocol. The RNA thus obtained was then reverse transcribed into cDNA using the High-Capacity RNA-to-cDNA kit (Applied Biosystems), and the amount of each gene expressions was measured by real-time PCR (Viia7™, Applied Biosystems). The PCR buffer used was TaqMan Fast Advanced Master Mix (Applied Biosystems), and TaqMan Gene Expression Assays (Applied Biosystems) Mm00439618_m1 (IL-17A) and 4352341E (β-actin) were used for each gene detection. The IL-17A gene expression level was normalized to the β-actin gene expression level, and the percent inhibition of IL-17A gene expression with the test compound was then calculated.
The results (percent inhibition of IL-17A gene expression with oral administration of the test compound) measured by the above-mentioned method are shown in Table 9.

Row | Compound | inhibition at 1 µM [1] [%] | inhibition at 1 µM [2] [%] | inhibition at 3 µM [3] [%] | inhibition at 10 µM [4] [%] | percent inhibition of IL-17A gene expression [5] [%]
1 | CCOc1ccc2c(c1)CCN(C(=O)[C@H]1C[C@H](C(=O)O)C1)[C@H]2C(=O)Nc1cc(F)c([Si](C)(C)C)c(F)c1 [Example 9, trans-3-(((1R)-1-((3,5-difluoro-4-(trimethylsilyl)phenyl)carbamoyl)-6-ethoxy-3,4-dihydroisoquinolin-2(1H)-yl)carbonyl)cyclobutanecarboxylic acid] | 102 | 88 | 99 | 93.5 | 57
2 | COc1ccc2c(n1)CCN(C(=O)[C@H]1C[C@@H](CC(=O)O)C1)[C@H]2C(=O)Nc1cc(F)c([Si](C)(C)C)c(F)c1 [Example 23, (cis-3-(((5R)-5-((3,5-difluoro-4-(trimethylsilyl)phenyl)carbamoyl)-2-methoxy-7,8-dihydro-1,6-naphthyridin-6(5H)-yl)carbonyl)cyclobutyl)acetic acid] | 102 | 87 | 101 | 85.9 | 96
3 | COc1ccc2c(n1)CCN(C(=O)[C@H]1C[C@H](CC(=O)O)C1)[C@H]2C(=O)Nc1cc(F)c([Si](C)(C)C)c(F)c1 [Example 28, (trans-3-(((5R)-5-((3,5-difluoro-4-(trimethylsilyl)phenyl)carbamoyl)-2-methoxy-7,8-dihydro-1,6-naphthyridin-6(5H)-yl)carbonyl)cyclobutyl)acetic acid] | 102 | 87 | 101 | 89.1 | 91
4 | COc1ccc2c(c1)CCN(C(=O)[C@H]1C[C@@H]1CC(=O)O)[C@H]2C(=O)Nc1cc(F)c([Si](C)(C)C)c(F)c1 [Example 29, ((1R,2S)-2-(((1R)-1-((3,5-difluoro-4-(trimethylsilyl)phenyl)carbamoyl)-6-methoxy-3,4-dihydroisoquinolin-2(1H)-yl)carbonyl)cyclopropyl)acetic acid] | 102 | 91 | 102 | 74.9 | 73
5 | COc1ccc2c(n1)CCN(C(=O)[C@H]1C[C@@H](C(=O)O)C1)[C@H]2C(=O)Nc1cc(F)c([Si](C)(C)C)c(F)c1 [Example 31, cis-3-(((5R)-5-((3,5-difluoro-4-(trimethylsilyl)phenyl)carbamoyl)-2-methoxy-7,8-dihydro-1,6-naphthyridin-6(5H)-yl)carbonyl)cyclobutanecarboxylic acid] | 102 | 86 | 102 | 89.8 | 85
6 | COc1ccc2c(c1)CCN(C(=O)[C@H]1C[C@@H](CC(=O)O)C1)[C@H]2C(=O)Nc1ccc([Si](C)(C)C)c(F)c1 [Example 33, (cis-3-(((1R)-1-((3-fluoro-4-(trimethylsilyl)phenyl)carbamoyl)-6-methoxy-3,4-dihydroisoquinolin-2(1H)-yl)carbonyl)cyclobutyl)acetic acid] | 102 | 92 | 102 | 78.5 | 94

Source: patent US10093629B2, “Heterocyclic compounds and their use as retinoid-related orphan receptor (ROR) gamma-T inhibitors” (Takeda Pharmaceutical Company Limited, priority 2014, dated 2018)
